# Data from PubChem BioAssay (NCI).
# “And” between values parts separate entries of the source, which are not always exact repeats. Equal entries are not always repeated.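 Values below derive from 48-hour exposures of cells grown in 96-well plates, with endpoints linearly interpolated between the two concentrations bracketing the appropriate inhibition level. Here, GI50 denotes the concentration required for 50% inhibition of growth. At the TGI there is no net growth.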
# Experiments:
# Experiment in all cases: NCI anticancer screen, dose series, 48 h
# [1] = system: A549 NSCLC
# [2] = system: HCT-116 colon
# [3] = system: HT29 colon
# [4] = system: NCI/ADR-RES ovarian
# [5] = system: OVCAR-4 ovarian
# [6] = system: PC-3 prostate
# [7] = system: SF-539 CNS
# [8] = system: SK-MEL-2 melanoma
# [9] = system: SK-MEL-5 melanoma
# [10] = system: U251 CNS
Structure (SMILES),GI50 [1] [µM],TGI [1] [µM],GI50 [2] [µM],TGI [2] [µM],GI50 [3] [µM],TGI [3] [µM],GI50 [4] [µM],TGI [4],GI50 [5] [µM],TGI [5] [µM],GI50 [6] [µM],TGI [6] [µM],GI50 [7] [µM],TGI [7] [µM],GI50 [8] [µM],TGI [8] [µM],GI50 [9] [µM],TGI [9],GI50 [10] [µM],TGI [10] [µM]
N#Cc1ccc(NC(=O)Nc2nc3ccc(OC(F)(F)F)cc3s2)cc1,1.21,11.1,0.552,2.87,2.07,10,1.55,8.39 µM,1.64,44,1.36,12.2,2.9,10.1,1.78,4.25,1.15,2.54 µM,1.43,11.4
COC(=O)[C@H](Cc1cn(C)cn1)NC(=O)[C@@H](NC(=O)Nc1cc(C(F)(F)F)cc(C(F)(F)F)c1)C(C)(C)C,> 10,> 10,> 10,> 10,> 10,> 10,> 10,> 10 µM,> 10,> 10,> 10,> 10,> 10,> 10,> 10,> 10,> 10,> 10 µM,> 10,> 10
CCOC(=O)C(=O)C(/C(=N/N(C)C)C(=O)Nc1ccc(C)cc1C)c1nc2ccccc2[nH]c1=O (configuration not stated),–,> 100,–,> 100,–,> 100,–,> 100 µM,–,> 100,–,> 100,–,> 100,–,> 100,–,> 100 µM,–,> 100
CCCCCCC(O)C(O)CCC(O)C1CCC(CCCCC(O)CC2=CC(C)OC2=O)O1 (configuration not stated),10.6,35.3,1.28,25.3,–,6.82,11,7.03 µM and 29.3 µM,–,39.6,13.1,33.1,> 100,> 100,17.4,36,–,7.07 µM and 13.4 µM,15.1,> 100
O=S(=O)(NCCNc1cc(-c2cn(-c3ccccc3)nc2-c2cccc(O)c2)ccn1)c1ccc(Br)cc1,3.6,15,2.44,6.48,2.17,5.04,3.14,12.5 µM,2.32,13.7,2.07,6.41,1.81,4.24,2.3,4.79,1.64,3.03 µM,2.21,5.64
Cc1ccc(-n2c3c(c4c(CN)c(O)ccc42)CCc2ccccc2C3=O)cc1,18.7,35.8,9.24,21.4,30.3,> 100,12.5,28.5 µM,20.8,46,4.77,19.3,16.6,36.1,12,26.9,1.61,3.01 µM,17.2,32.5
